The values that follow are results of earlier work, collected in US20100022444A1, “COMBINATION THERAPY FOR MODULATION OF ACTIVITY AND DEVELOPMENT OF CELLS AND TISSUES” (BodyBio, Inc., priority 2008, published 2010).

The data set concerns mouse model of Bulbar ALS. Conditions: oral administration.

Regarding `CCCC(=O)[O-].[Na+]` [sodium butyrate], the “acetylation of nuclear histone in neural tissues” value is on record as “increased acetylation of nuclear histone in neural tissues” and the neurological phenotypes result is reported as “successfully ameliorated neurological phenotypes”.
